Source: US8426420B2, “Heterocyclic pyrazole-carboxamidesas P2Y12 antagonists” (Sanofi, priority 2007, dated 2013)

What was measured:
[1] = tested on: human platelet rich plasma; experiment: Inhibition of human platelet aggregation, 96-well assay; type: cell-based; conditions: Homo sapiens, Platelet, 20 min
Summary of the method: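 ADP-induced aggregation read as 650 nm absorbance every minute for 20 min at 37 °C, with shaking between reads. PRP (~3×E8 platelets/ml, diluted with PPP, ACD-A blood from healthy volunteers) was exposed to compound for 5 min before adding a 40 μM ADP stock (15 μl into 150 μl).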

[2] = tested on: human platelet rich plasma; experiment: Inhibition of human platelet aggregation, "Born"-method using single cuvettes; type: cell-based; conditions: 0.1 h, ADP-induced aggregation, 6 minutes
Description: Inhibition of Human Platelet Aggregation
Alternatively to a binding assay which measures a compound's ability to bind to the P2Y12 receptor, the effect on cellular function was also determined. This ability of the compound was evaluated in two platelet aggregation assays: in 96-well plates and with the “Born”-method using single cuvettes.
Whole blood was collected from healthy volunteers using 20 ml syringes containing 2 ml of buffered Citrate. The anticoagulated whole blood was transferred into 15 ml polypropylene conical tubes (10 ml per tube). The tubes were centrifuged for 15 minutes at 340×g at RT without using the centrifuge brake. This procedure leads to a pellet of cellular components and a supernatant of platelet rich plasma (PRP). The PRP layer was collected from each tube and pooled for each donor. To avoid carry over of cellular components following centrifugation, approximately 5 ml of PRP was left in the tube. The platelet concentration was determined using a Coulter Counter.
The 15 ml tubes containing the pellet of cellular components were centrifuged again for 10 minutes at 1940×g. This pelleted out most particulate blood constituents remaining, leaving a layer of Platelet Poor Plasma (PPP). The PPP was collected for each donor. The PRP layer, previously set aside, was diluted with PPP to a final concentration of approximately 3×E8 platelets/ml with the PPP.
The human platelet aggregation assay is performed in single use cuvettes using the platelet aggregation profiler (PAP-4 or -8, Bio/Data corporation).
In the assay cuvette 4 μl of test compound at 100× final concentration in DMSO is mixed with 392 μl fresh PRP and incubated for 2 minutes at 37° C. with 1.200 rpm stirring. Following that incubation period, 4 μl of 250 μM ADP is added to the reaction mix. This addition of ADP is sufficient to induce aggregation in the absence of an inhibitor. After that aggregation is measured over 6 minutes at 37° C. with 1.200 rpm stirring. Results of the assay are expressed as % inhibition, and are calculated using maximum aggregation (Tmax) or area under curve (AUC) of the absorbance over 6 minutes.
The IC50 data of the above described platelet aggregation assay using human platelet rich plasma for exemplary compounds of the present invention are shown in table 3.

human P2Y12 receptor = human P2Y12 receptor (Homo sapiens, UniProt Q9H244); experiment: Human P2Y12 recombinant cell membrane binding assay with 33P 2MeS-ADP; conditions: competition against 33P 2MeS-ADP, membranes of CHO cells with recombinant human P2Y12 receptor
Chain of human P2Y12 receptor (Q9H244 whole entry): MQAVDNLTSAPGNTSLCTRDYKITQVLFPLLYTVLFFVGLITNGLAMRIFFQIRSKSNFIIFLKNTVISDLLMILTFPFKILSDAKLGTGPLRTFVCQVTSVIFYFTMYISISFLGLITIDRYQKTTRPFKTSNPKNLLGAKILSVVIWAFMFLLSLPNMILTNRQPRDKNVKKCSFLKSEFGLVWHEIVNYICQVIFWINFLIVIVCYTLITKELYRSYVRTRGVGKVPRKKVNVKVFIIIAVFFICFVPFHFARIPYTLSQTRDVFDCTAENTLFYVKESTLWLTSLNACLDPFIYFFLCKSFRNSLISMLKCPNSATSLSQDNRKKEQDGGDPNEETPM
Summary of the method: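 Competition binding against radiolabeled 2MeS-ADP (1.61 nM as added) on membranes from recombinant human P2Y12 CHO cells, 20 min RT after 15 min compound preincubation, pH 7.4. Filtration then scintillation counting; compounds tested in triplicate from 10 μM final, five-fold dilutions, curve fit with plate-defined min/max.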

| SMILES | IC50 [1] [nM] | IC50 [2] [nM] | IC50 (human P2Y12 receptor) [nM] |
| --- | --- | --- | --- |
| CCOC(=O)N1CCN(C(=O)[C@H](CCC(=O)O)NC(=O)c2cc(OCC(=O)N3CCC[C@H]3C(=O)NC3CC3)n(-c3ccccc3)n2)CC1 [Example 1, 4-[(S)-4-Carboxy-2-({5-[2-((S)-2-cyclopropylcarbamoyl-pyrrolidin-1-yl)-2-oxo-ethoxy]-1-phenyl-1H-pyrazole-3-carbonyl}-amino)-butyryl]-piperazine-1-carboxylic acid ethyl ester] | 10 | 210 | 270 |
| CCOC(=O)N1CCN(C(=O)[C@H](CCC(=O)O)NC(=O)c2cc(OCC(=O)N3CCC[C@H]3C(=O)NCC(F)(F)F)n(-c3ccccc3)n2)CC1 [Example 2, 4-{(S)-4-Carboxy-2-[(5-{2-oxo-2-[(S)-2-(2,2,2-trifluoroethyl-carbamoyl)pyrrolidin-1-yl]-ethoxy}-1-phenyl-1H-pyrazole-3-carbonyl)-amino]-butyryl}-piperazine-1-carboxylic acid ethyl ester] | – | 11 | 120 |
| CCCNC(=O)[C@@H]1CCCN1C(=O)COc1cc(C(=O)N[C@@H](CCC(=O)O)C(=O)N2CCN(C(=O)OCC)CC2)nn1-c1ccccc1 [Example 9, 4-{(S)-4-Carboxy-2-[(5-{2-[(S)-2-propylcarbamoyl-pyrrolidin-1-yl]-2-oxo-ethoxy}-1-phenyl-1H-pyrazole-3-carbonyl)-amino]-butyryl}-piperazine-1-carboxylic acid ethyl ester] | 60 | 91 | 172 |
| CCOC(=O)N1CCN(C(=O)[C@H](CCC(=O)O)NC(=O)c2cc(OCC(=O)N3CCC[C@H]3C(=O)NC(C)C)n(-c3ccccc3)n2)CC1 [Example 10, 4-{(S)-4-Carboxy-2-[(5-{2-[(S)-2-isopropylcarbamoyl-pyrrolidin-1-yl]-2-oxo-ethoxy}-1-phenyl-1H-pyrazole-3-carbonyl)-amino]-butyryl}-piperazine-1-carboxylic acid ethyl ester] | – | 340 | 146 |
| CCOC(=O)N1CCN(C(=O)[C@H](CCC(=O)O)NC(=O)c2cc(OCC(=O)N3CCC[C@H]3C(=O)NC(C)(C)C)n(-c3ccccc3)n2)CC1 [Example 12, 4-{(S)-4-Carboxy-2-[(5-{2-[(S)-2-tert-butylcarbamoyl-pyrrolidin-1-yl]-2-oxo-ethoxy}-1-phenyl-1H-pyrazole-3-carbonyl)-amino]-butyryl}-piperazine-1-carboxylic acid ethyl ester] | 20 | 70 | 107 |
| CCOC(=O)N1CCN(C(=O)[C@H](CCC(=O)O)NC(=O)c2cc(OCC(=O)N3CCC[C@H]3C(=O)NCC(F)F)n(-c3ccccc3)n2)CC1 [Example 15, 4-{(S)-4-Carboxy-2-[(5-{2-[(S)-2-(2,2-difluoro-ethylcarbamoyl)-pyrrolidin-1-yl]-2-oxo-ethoxy}-1-phenyl-1H-pyrazole-3-carbonyl)-amino]-butyryl}-piperazine-1-carboxylic acid ethyl ester] | 130 | 120 | 164 |
| CCOC(=O)N1CCN(C(=O)[C@H](CCC(=O)O)NC(=O)c2cc(OCC(=O)N3CCC[C@H]3C(=O)NCC3CCC3)n(-c3ccccc3)n2)CC1 [Example 20, 4-{(S)-4-Carboxy-2-[(5-{2-[(S)-2-(cyclobutylmethyl-carbamoyl)-pyrrolidin-1-yl]-2-oxo-ethoxy}-1-phenyl-1H-pyrazole-3-carbonyl)-amino]-butyryl}-piperazine-1-carboxylic acid ethyl ester] | 100 | 72 | 50 |
| CCOC(=O)N1CCN(C(=O)[C@H](CCC(=O)O)NC(=O)c2cc(O[C@H](C)C(=O)N3CCC[C@H]3C(=O)NCC3CC3)n(-c3ccccc3)n2)CC1 [Example 63, 4-[(S)-4-Carboxy-2-({5-[(R)-2-((S)-2-cyclopropylmethylcarbamoyl-pyrrolidin-1-yl)-1-methyl-2-oxo-ethoxy]-1-phenyl-1H-pyrazole-3-carbonyl}-amino)-butyryl]-piperazine-1-carboxylic acid ethyl ester] | – | 20 | 41 |

Second part, the molecule after the results:

| IC50 [1] [nM] | IC50 [2] [nM] | IC50 (human P2Y12 receptor) [nM] | SMILES |
| --- | --- | --- | --- |
| – | 120 | 55 | CCOC(=O)N1CCN(C(=O)[C@H](CCC(=O)O)NC(=O)c2cc(O[C@H](C)C(=O)N3CCC[C@H]3C(=O)NCC(F)(F)F)n(-c3ccccc3)n2)CC1 [Example 65, 4-[(S)-4-Carboxy-2-({5-[(R)-2-((S)-2-(2,2,2-trifluoroethylcarbamoyl)-pyrrolidin-1-yl)-1-methyl-2-oxo-ethoxy]-1-phenyl-1H-pyrazole-3-carbonyl}-amino)-butyryl]-piperazine-1-carboxylic acid ethyl ester] |
| – | 20 | 71 | CCCCOC(=O)N1CCN(C(=O)[C@H](CCC(=O)O)NC(=O)c2cc(OCC(=O)N3CCC[C@H]3C(=O)N(C)C3CCC3)n(-c3ccccc3)n2)CC1 [Example 124, 4-{(S)-4-Carboxy-2-[(5-{2-[(S)-2-(cyclobutyl-methyl-carbamoyl)-pyrrolidin-1-yl]-2-oxo-ethoxy}-1-phenyl-1H-pyrazole-3-carbonyl)-amino]-butyryl}-piperazine-1-carboxylic acid butyl ester] |
| 760 | 2220 | – | CCOC(=O)N1CCN(C(=O)[C@H](CCC(=O)O)NC(=O)c2cc(OCC(=O)N3CCC[C@H]3c3nc(C)no3)n(-c3ccccc3)n2)CC1 [Example 174, 4-{(S)-4-Carboxy-2-[(5-{2-[(S)-2-(3-methyl-[1,2,4]oxadiazol-5-yl)-pyrrolidin-1-yl]-2-oxo-ethoxy}-1-phenyl-1H-pyrazole-3-carbonyl)-amino]-butyryl}-piperazine-1-carboxylic acid ethyl ester] |
| – | 70 | 17 | CCCCOC(=O)N1CCN(C(=O)[C@H](CCCO)NC(=O)c2cc(OCC(=O)N3CCC[C@H]3C(=O)NC3CCC3)n(-c3ccccc3)n2)CC1 [Example 178, 4-[(S)-2-({5-[2-((S)-2-Cyclobutylcarbamoyl-pyrrolidin-1-yl)-2-oxo-ethoxy]-1-phenyl-1H-pyrazole-3-carbonyl}-amino)-5-hydroxy-pentanoyl]-piperazine-1-carboxylic acid butyl ester] |
| 90 | 100 | – | CCOC(=O)N1CCN(C(=O)CNC(=O)c2cc(OCC(=O)N3CCC[C@H]3C(=O)NC3CCC3)n(-c3ccccc3)n2)CC1 [Example 181, 4-[2-({5-[2-((S)-2-Cyclobutylcarbamoyl-pyrrolidin-1-yl)-2-oxo-ethoxy]-1-phenyl-1H-pyrazole-3-carbonyl}-amino)-acetyl]-piperazine-1-carboxylic acid ethyl ester] |
| 130 | 190 | – | O=C(NCC(=O)N1CCN(C(=O)OCCC(F)(F)F)CC1)c1cc(OCC(=O)N2CCC[C@H]2C(=O)NC2CCC2)n(-c2ccccc2)n1 [Example 256, 4-[2-({5-[2-((S)-2-Cyclobutylcarbamoyl-pyrrolidin-1-yl)-2-oxo-ethoxy]-1-phenyl-1H-pyrazole-3-carbonyl}-amino)-acetyl]-piperazine-1-carboxylic acid 3,3,3-trifluoro-propyl ester] |
| 30 | 40 | – | CCCCOC(=O)N1CCN(C(=O)[C@H](CF)NC(=O)c2cc(OCC(=O)N3CCC[C@H]3C(=O)NC3CCC3)n(-c3ccccc3)n2)CC1 [Example 262, 4-[(R)-2-({5-[2-((S)-2-Cyclobutylcarbamoyl-pyrrolidin-1-yl)-2-oxo-ethoxy]-1-phenyl-1H-pyrazole-3-carbonyl}-amino)-3-fluoro-propionyl]-piperazine-1-carboxylic acid butyl ester] |
| – | 50 | 3 | CCCCOC(=O)N1CCN(C(=O)CNC(=O)c2cc(O[C@H](C)C(=O)N3CCC[C@H]3C(=O)NC3CCC3)n(-c3ccccc3)n2)CC1 [Example 269, 4-[2-({5-[(R)-2-((S)-2-Cyclobutylcarbamoyl-pyrrolidin-1-yl)-1-methyl-2-oxo-ethoxy]-1-phenyl-1H-pyrazole-3-carbonyl}-amino)-acetyl]-piperazine-1-carboxylic acid butyl ester] |
